This note sets out measurements from patent US20170152226A1, “FUNCTIONALISED AND SUBSTITUTED INDOLES AS ANTI-CANCER AGENTS” (Novogen Ltd., priority 2014, published 2017).

Molecules are shown by their SMILES. Where two headings read alike, the source gives them in different places. Bounds are passed on as bounds.

Common to all, as to experiment: Anti-proliferative activity, cell-titre luminescent viability assay
What all share (assay type): cell-based

For assay [1], the system named is SK-Mel-28. As to conditions: Homo sapiens, SK-MEL-28, 72 hours, read-out: IC50 Melanoma SK-Mel-28. As to the method:
(§1) The ability of compounds 3501-3540 and 3542-3545 to inhibit the proliferation of cancer cells representative of neuroblastoma, melanoma, prostate cancer, colorectal cancer, non-small cell lung carcinoma, and triple negative breast cancer was assessed. Briefly, a pre-determined number of cells as calculated from cell growth assays for each of the cell lines employed were seeded into their respective culture medium (using ATCC culture parameters—http://www.atcc.org) and cultured for 24 hours at 37° C. and 5% CO2 in 96-well culture plates. Once attached, each cell line was then exposed to increasing concentrations of each respective analogue (0.03, 0.3, 3 and 30 μM for compounds in Table 1; 0.1, 0.3, 1, 3, 10 and 30 μM for compounds in Table 2), cultured for a further 72 hours and exposed to cell-titre luminescent reagent (100 μL/well) for a further 30 min) to assess for cell viability. Luminescence was captured using an EnVision multilabel reader and the data for each analogue concentration was normalized, as a percentage, to the no treatment control. For compounds 3501, 3503, 3505-08, 3512-18, 3520, 3522-24 and 3531-36, semi-log plots of Percent of Control versus concentration were prepared and IC50 determined using linear regression analysis. For compounds 3502, 3504, 3509-11, 3519, 3521, 3525-30, 3537-40 and 3542-45, cell viability was normalized to control (vehicle alone) and dose-response curves, and half maximal effective concentration (EC50) values were determined using Graph Pad Prism 6 (nonlinear regression sigmoidal dose-response variable slope).

In assay [2] the test system is A549. As to conditions: Homo sapiens, read-out: IC50 Lung (NSLC) A549. The protocol: as §1
Assay [3] relates to MDA-MB-231. Particulars: Homo sapiens, read-out: IC50 Breast MDA-MB-231. As to the method:
as §1

The subject of assay [4] is PC3. As to conditions: Homo sapiens, read-out: IC50 Prostate PC3. As to the method:
as §1

Assay [5] relates to SK-N-SH. Particulars: Homo sapiens, SK-N-SH, read-out: IC50 Neuroblastoma SK-N-SH. As to the method:
as §1

In assay [6] the test system is DU145. Particulars: Homo sapiens, read-out: IC50 Prostate DU145. The protocol: as §1
The test system of assay [7] is CaCo2. Particulars: Homo sapiens, read-out: IC50 Colorectal CaCo2. The protocol: as §1
The mark [8] stands for this setting: 0.03, 0.3, 3 and 30 μM, linear regression of semi-log plots.
[9] abbreviates: A549, 72 h, 0.03, 0.3, 3 and 30 μM, linear regression of semi-log plots.
Where [10] appears, read: MDA-MB-231, 72 h, 0.03, 0.3, 3 and 30 μM, linear regression of semi-log plots.
The mark [11] stands for this setting: PC-3, 72 h, 0.03, 0.3, 3 and 30 μM, linear regression of semi-log plots.
[12] abbreviates: 72 h, 0.03, 0.3, 3 and 30 μM, linear regression of semi-log plots.
Setting [13] is: DU-145, 72 h, 0.03, 0.3, 3 and 30 μM, linear regression of semi-log plots.
The mark [14] stands for this setting: Caco-2, 72 h, 0.03, 0.3, 3 and 30 μM, linear regression of semi-log plots.
Setting [15] is: 0.1, 0.3, 1, 3, 10 and 30 μM, nonlinear regression sigmoidal dose-response (EC50).
Setting [16] is: A549, 72 h, 0.1, 0.3, 1, 3, 10 and 30 μM, nonlinear regression sigmoidal dose-response (EC50).
The mark [17] stands for this setting: MDA-MB-231, 72 h, 0.1, 0.3, 1, 3, 10 and 30 μM, nonlinear regression sigmoidal dose-response (EC50).
The mark [18] stands for this setting: PC-3, 72 h, 0.1, 0.3, 1, 3, 10 and 30 μM, nonlinear regression sigmoidal dose-response (EC50).
Setting [19] is: 72 h, 0.1, 0.3, 1, 3, 10 and 30 μM, nonlinear regression sigmoidal dose-response (EC50).
Setting [20] is: DU-145, 72 h, 0.1, 0.3, 1, 3, 10 and 30 μM, nonlinear regression sigmoidal dose-response (EC50).
Setting [21] is: Caco-2, 72 h, 0.1, 0.3, 1, 3, 10 and 30 μM, nonlinear regression sigmoidal dose-response (EC50).

In the case of `Cc1c(C)n(CCCN2CCN(C)CC2)c2ccc(Nc3cccc(C(=O)N4CCN(CCc5ccc6c(c5)OCO6)CC4)c3)cc12` [Compound 3515, (4-(2-(benzo[d][1,3]dioxol-5-yl)ethyl)piperazin-1-yl)(3-((2,3-dimethyl-1-(3-(4-methylpiperazin-1-yl)propyl)-1H-indol-5-yl)amino)phenyl)methanone], the IC50 (in general, the concentration needed to halve the response being measured) stood at 2.7 µM in assay [1] (setting [8]); 4.3 µM in assay [2] (setting [9]); 3.3 µM in assay [3] (setting [10]); 4.9 µM in assay [4] (setting [11]); 3.4 µM in assay [5] (setting [12]); 4 µM in assay [6] (setting [13]). In assay [7] (setting [14]), the IC50 is 4.6 µM.

In the case of `COc1cccc(CCN2CCN(C(=O)c3cccc(Nc4ccc5c(c4)c(C)c(C)n5CCCN4CCN(C)CC4)c3)CC2)c1` [Compound 3517, (3-((2,3-dimethyl-1-(3-(4-methylpiperazin-1-yl)propyl)-1H-indol-5-yl)amino)phenyl)(4-(3-methoxyphenethyl)piperazin-1-yl)methanone], the IC50 in assay [1] (setting [8]) came to 3.7 µM; in assay [2] (setting [9]), 4.4 µM; in assay [3] (setting [10]) it was 5.3 µM; in assay [4] (setting [11]) it was 21.1 µM; in assay [5] (setting [12]), 4.5 µM; in assay [6] (setting [13]), 7.1 µM. In addition, the IC50 in assay [7] (setting [14]) is above 30 µM.

On to `Cc1c(C)n(CCCN2CCN(C)CC2)c2ccc(Nc3cccc(C(=O)N4CCN(CCc5ccccc5)CC4)c3)cc12` [Compound 3518, (3-((2,3-dimethyl-1-(3-(4-methylpiperazin-1-yl)propyl)-1H-indol-5-yl)amino)phenyl)(4-phenethylpiperazin-1-yl)methanone], for which the 50% inhibitory concentration (IC50) in assay [1] (setting [8]) was 2.4 µM; in assay [2] (setting [9]), 3 µM; in assay [3] (setting [10]), 2.1 µM; in assay [4] (setting [11]), 4.1 µM; in assay [5] (setting [12]), 2.3 µM; in assay [6] (setting [13]), 3.2 µM. Further, the IC50 in assay [7] (setting [14]) turned out to be 2.5 µM.

Take `Cc1c(C)n(CCCN2CCN(C)CC2)c2ccc(Cc3ccc(C(=O)N4CCN(CCc5ccc(F)cc5)CC4)cc3)cc12` [Compound 3519, (4-((2,3-dimethyl-1-(3-(4-methylpiperazin-1-yl)propyl)-1H-indol-5-yl)methyl)phenyl)(4-(4-fluorophenethyl)piperazin-1-yl)methanone]: the IC50 came to 2.5 µM in assay [1] (setting [15]); 4.4 µM in assay [2] (setting [16]); 5 µM in assay [3] (setting [17]); 4.9 µM in assay [4] (setting [18]); 2.6 µM in assay [5] (setting [19]); 4.3 µM in assay [6] (setting [20]). Moreover, the IC50 in assay [7] (setting [21]) was 5.6 µM.

Regarding `Cc1c(C)n(CCCN2CCN(C)CC2)c2ccc(Cc3ccc(C(=O)N4CCN(CCc5ccc6c(c5)OCO6)CC4)cc3)cc12` [Compound 3521, (4-(2-(benzo[d][1,3]dioxol-5-yl)ethyl)piperazin-1-yl)(4-((2,3-dimethyl-1-(3-(4-methylpiperazin-1-yl)propyl)-1H-indol-5-yl)methyl)phenyl)methanone], the IC50 in assay [1] (setting [15]) was 4.1 µM; in assay [2] (setting [16]), 5.9 µM; in assay [3] (setting [17]), 6.6 µM; in assay [4] (setting [18]), 6.3 µM; in assay [5] (setting [19]), 4.2 µM; in assay [6] (setting [20]), 5.7 µM. For the same molecule, the IC50 in assay [7] (setting [21]) was determined as 6 µM.

For `Cc1c(C)n(CCCN2CCN(C)CC2)c2ccc(Cc3ccc(C(=O)N4CCN(CCc5cccc(F)c5)CC4)cc3)cc12` [Compound 3522, (4-((2,3-dimethyl-1-(3-(4-methylpiperazin-1-yl)propyl)-1H-indol-5-yl)methyl)phenyl)(4-(3-fluorophenethyl)piperazin-1-yl)methanone], the IC50 amounted to 1 µM in assay [1] (setting [8]); 1.6 µM in assay [2] (setting [9]); 1.3 µM in assay [3] (setting [10]); 2.5 µM in assay [4] (setting [11]); 2 µM in assay [5] (setting [12]); 2.4 µM in assay [6] (setting [13]). Further, the IC50 in assay [7] (setting [14]) came out at 3 µM.

Take `COc1cccc(CCN2CCN(C(=O)c3ccc(Cc4ccc5c(c4)c(C)c(C)n5CCCN4CCN(C)CC4)cc3)CC2)c1` [Compound 3523, (4-((2,3-dimethyl-1-(3-(4-methylpiperazin-1-yl)propyl)-1H-indol-5-yl)methyl)phenyl)(4-(3-methoxyphenethyl)piperazin-1-yl)methanone]: the IC50 in assay [1] (setting [8]) came out at 0.8 µM; in assay [2] (setting [9]), 1.4 µM; in assay [3] (setting [10]), 1.1 µM; in assay [4] (setting [11]) it was 2.4 µM; in assay [5] (setting [12]) it was 2.1 µM; in assay [6] (setting [13]), 2.1 µM. Moreover, the IC50 in assay [7] (setting [14]) was determined as 3.1 µM.

On to `Cc1c(C)n(CCCN2CCN(C)CC2)c2ccc(Cc3ccc(C(=O)N4CCN(CCc5ccccc5)CC4)cc3)cc12` [Compound 3524, (4-((2,3-dimethyl-1-(3-(4-methylpiperazin-1-yl)propyl)-1H-indol-5-yl)methyl)phenyl)(4-phenethylpiperazin-1-yl)methanone], for which the IC50 was 1.1 µM in assay [1] (setting [8]); 0.9 µM in assay [2] (setting [9]); 1.1 µM in assay [3] (setting [10]); 0.9 µM in assay [4] (setting [11]); 1.4 µM in assay [5] (setting [12]); 1.8 µM in assay [6] (setting [13]). The IC50 in assay [7] (setting [14]) was found to be 1.7 µM.

As to `Cc1c(C)n(CCCN2CCN(C)CC2)c2ccc(Oc3ccc(C(=O)N4CCN(CCc5ccc(F)cc5)CC4)cc3)cc12` [Compound 3525, (4-((2,3-dimethyl-1-(3-(4-methylpiperazin-1-yl)propyl)-1H-indol-5-yl)oxy)phenyl)(4-(4-fluorophenethyl)piperazin-1-yl)methanone], the IC50 in assay [1] (setting [15]) is 1.7 µM; in assay [2] (setting [16]), 3.8 µM; in assay [3] (setting [17]) it was 4.3 µM; in assay [4] (setting [18]), 4.5 µM; in assay [5] (setting [19]), 1.9 µM; in assay [6] (setting [20]) it was 4.1 µM. Further, in assay [7] (setting [21]), the IC50 is 4.1 µM.

Turning to `COc1ccc(CCN2CCN(C(=O)c3ccc(Oc4ccc5c(c4)c(C)c(C)n5CCCN4CCN(C)CC4)cc3)CC2)cc1` [Compound 3526], the IC50 in assay [1] (setting [15]) worked out at 4.8 µM; in assay [2] (setting [16]) it was 3 µM; in assay [3] (setting [17]), 13.4 µM; in assay [4] (setting [18]), 15.6 µM; in assay [5] (setting [19]) it was 4.8 µM; in assay [6] (setting [20]) it was 9 µM. The half-maximal inhibitory concentration (IC50) in assay [7] (setting [21]) turned out to be 5.3 µM.

In the case of `Cc1c(C)n(CCCN2CCN(C)CC2)c2ccc(Oc3ccc(C(=O)N4CCN(CCc5ccc6c(c5)OCO6)CC4)cc3)cc12` [Compound 3527, (4-(2-(benzo[d][1,3]dioxol-5-yl)ethyl)piperazin-1-yl)(4-((2,3-dimethyl-1-(3-(4-methylpiperazin-1-yl)propyl)-1H-indol-5-yl)oxy)phenyl)methanone], the IC50 in assay [1] (setting [15]) is 4.1 µM; in assay [2] (setting [16]), 5 µM; in assay [3] (setting [17]), 4.8 µM; in assay [4] (setting [18]), 7.2 µM; in assay [5] (setting [19]), 3.2 µM; in assay [6] (setting [20]) it was 4.5 µM. Moreover, in assay [7] (setting [21]), the IC50 worked out at 4.1 µM.

On to `Cc1c(C)n(CCCN2CCN(C)CC2)c2ccc(Oc3ccc(C(=O)N4CCN(CCc5cccc(F)c5)CC4)cc3)cc12` [Compound 3528], for which the IC50 is 3.8 µM in assay [1] (setting [15]); 6.6 µM in assay [2] (setting [16]); 5.9 µM in assay [3] (setting [17]); 7.3 µM in assay [4] (setting [18]); 4.3 µM in assay [5] (setting [19]); 5.2 µM in assay [6] (setting [20]). Besides, the IC50 in assay [7] (setting [21]) came to 4.6 µM.

As for `COc1cccc(CCN2CCN(C(=O)c3ccc(Oc4ccc5c(c4)c(C)c(C)n5CCCN4CCN(C)CC4)cc3)CC2)c1` [Compound 3529], the 50% inhibitory concentration (IC50) is 2.4 µM in assay [1] (setting [15]); 4.4 µM in assay [2] (setting [16]); 4.5 µM in assay [3] (setting [17]); 4.8 µM in assay [4] (setting [18]); 2 µM in assay [5] (setting [19]); 4.2 µM in assay [6] (setting [20]). In assay [7] (setting [21]), the IC50 was determined as 4.2 µM.
